From patent US5684140A, “Dyes for ink jet printing” (Ilford A.G., priority 1995, dated 1997)

Experiment: Water solubility of the dyes (excess dye heated at 50 °C in water, cooled to 20 °C, filtered, determined spectroscopically)
Format: physicochemical
Settings: after heating at 50 °C for one hour
Description: The solubilities of the dyes according to the invention were determined as follows:
An excess of dye was heated at 50° C. in water with stirring for one hour. The mixture was then cooled down to 20 ° C. and filtered, and the dye content of the clear solution was determined spectroscopically.

SMILES | solubility [g per 100 ml]
COc1cc(N=Nc2cc(S(=O)(=O)O)c3cccc(S(=O)(=O)O)c3c2)c(C)cc1Nc1nc(O)nc(NCCS(=O)(=O)O)n1 [Compound 100] | 31
COc1cc(N=Nc2cc(S(=O)(=O)O)c3cccc(S(=O)(=O)O)c3c2)c(C)cc1Nc1nc(NCCS(=O)(=O)O)nc(SCCO)n1 [Compound 101] | 40
COc1cc(N=Nc2cc(S(=O)(=O)O)c3cccc(S(=O)(=O)O)c3c2)c(C)cc1Nc1nc(NCCS(=O)(=O)O)nc(SCC(=O)O)n1 [Compound 102] | 54
CCN(c1nc(Cl)nc(Nc2ccc(N=Nc3cc4c(S(=O)(=O)O)cc(S(=O)(=O)O)cc4cc3S(=O)(=O)O)c(NC(N)=O)c2)n1)c1cc(S(=O)(=O)O)ccc1C [dye 1, reference compound] | 11
CCN(c1nc(Cl)nc(Nc2cc(NC(C)=O)c(N=Nc3cc(S(=O)(=O)O)c4cccc(S(=O)(=O)O)c4c3)cc2OC)n1)c1cc(S(=O)(=O)O)ccc1C [dye 5, reference compound] | 17
